Reference: patent US20180009859A1, “PHARMACOLOGICAL MODULATORS OF GABAA RECEPTORS AND THEIR USE” (priority 2015, published 2018)
Values joined by “and” are separate entries in the source; they are usually repeats but may differ in a detail not shown here. Equal values may be shown once. “Also recorded” adds a separate entry of the source. Read-outs that look alike come from different tables or passages of the source. Bridge positions count the residues as written; N and C are the ends.

Key:
hippocampal neurons [1] = assay type: cell-based, mouse
α1β2γ2 GABAA receptor [2] = target: T1, α1β2γ2 GABAA receptor (Rattus norvegicus, UniProt P62813+P63138); assay type: cell-based
α1β2γ2 GABAA receptor [3] = target: T1, α1β2γ2 GABAA receptor; assay type: cell-based; conditions: 5 μM muscimol + 100 nM sMmTX1, n=3; control 48±5s
α1EKβ2γ2 receptor mutant = assay type: cell-based, rat
hippocampal neurons [4] = test: Calcium imaging of hippocampal neurons (Ca^2+ oscillations); assay type: cell-based, rat
mice = conditions: injection into mouse brain
α1β2-containing receptor = α1β2-containing receptor (Rattus norvegicus, UniProt P62813+P63138); assay type: cell-based; conditions: 100 nM sMmTX1, −70 mV
α1β2-containing receptor, sequence (P63138 25-474): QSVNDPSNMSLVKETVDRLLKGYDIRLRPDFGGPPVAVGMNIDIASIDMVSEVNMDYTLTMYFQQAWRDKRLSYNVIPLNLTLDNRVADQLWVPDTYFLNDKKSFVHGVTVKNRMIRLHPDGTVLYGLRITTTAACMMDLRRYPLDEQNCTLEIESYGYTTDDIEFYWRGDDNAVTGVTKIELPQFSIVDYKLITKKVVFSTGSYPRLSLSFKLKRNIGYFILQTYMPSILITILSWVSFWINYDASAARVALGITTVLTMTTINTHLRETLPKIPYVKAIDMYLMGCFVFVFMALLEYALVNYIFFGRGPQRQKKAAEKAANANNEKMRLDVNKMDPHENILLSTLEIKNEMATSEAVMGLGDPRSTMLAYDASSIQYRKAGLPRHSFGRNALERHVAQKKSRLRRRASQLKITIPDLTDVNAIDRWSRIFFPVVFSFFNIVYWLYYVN
α1β2-containing receptor, sequence (P62813 28-455): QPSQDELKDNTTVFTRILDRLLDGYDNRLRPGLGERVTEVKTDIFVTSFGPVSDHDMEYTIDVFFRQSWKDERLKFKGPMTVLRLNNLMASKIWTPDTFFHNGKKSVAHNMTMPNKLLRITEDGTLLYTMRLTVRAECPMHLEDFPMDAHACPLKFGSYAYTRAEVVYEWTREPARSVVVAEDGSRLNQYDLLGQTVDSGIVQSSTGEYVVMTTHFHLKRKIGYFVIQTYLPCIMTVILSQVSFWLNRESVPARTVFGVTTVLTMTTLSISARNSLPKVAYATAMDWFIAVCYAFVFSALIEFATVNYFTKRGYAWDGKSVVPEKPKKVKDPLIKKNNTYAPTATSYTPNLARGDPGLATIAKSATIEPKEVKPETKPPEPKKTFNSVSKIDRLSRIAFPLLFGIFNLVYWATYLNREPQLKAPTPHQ

T1 sequence (P63138 25-474): as the sequence (P63138 25-474) above
T1 sequence (P62813 28-455): as the sequence (P62813 28-455) above
T1 sequence (P18508 39-466, further chain): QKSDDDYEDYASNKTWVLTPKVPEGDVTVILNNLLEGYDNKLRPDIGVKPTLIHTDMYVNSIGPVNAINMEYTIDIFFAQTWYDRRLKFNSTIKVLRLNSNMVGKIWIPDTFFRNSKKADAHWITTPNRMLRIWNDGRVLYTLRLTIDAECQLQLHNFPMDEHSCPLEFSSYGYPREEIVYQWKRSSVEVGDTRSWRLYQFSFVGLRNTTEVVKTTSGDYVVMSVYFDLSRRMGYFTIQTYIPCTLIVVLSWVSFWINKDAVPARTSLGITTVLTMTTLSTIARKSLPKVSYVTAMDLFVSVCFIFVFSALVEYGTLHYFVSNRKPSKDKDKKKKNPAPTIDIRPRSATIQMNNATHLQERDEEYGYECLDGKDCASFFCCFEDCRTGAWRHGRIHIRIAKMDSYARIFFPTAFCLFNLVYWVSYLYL

Q: “LTCKTCPFTTCPNSESCPGGQSICYQRKWEEHRGERIERRCVANCPAFGSHDTSLLCCTRDNCN (disulfide 3-24, 6-11, 17-41, 45-57, 58-63) [sMmTX1]” was tested. Which “frequency of action potentials” value (hippocampal neurons [1]; 100 nM sMmTX1, current clamp, n=5) did it give?
A: substantial increase; also recorded: significantly increased

Q: What about the “action potential amplitude and time-to-peak” value (hippocampal neurons [1]; 100 nM sMmTX1, n=5) of the same sequence?
A: do not reveal a significant change

Q: And the “amplitude of mini inhibitory postsynaptic currents (mIPSCs)” value (hippocampal neurons [1]; 300 nM muscimol and 100 nM sMmTX1, with TTX, DNQX, APV, n=3)?
A: reduces the amplitude

Q: What about the “currents elicited by 30 ms puffs of 300 nM muscimol” value (hippocampal neurons [1]; continuous application of 100 nM sMmTX1) of the same sequence?
A: induces a decrease

Q: And the “duration of burst-like postsynaptic currents” value (hippocampal neurons [1]; sMmTX1, voltage clamp, n=5)?
A: considerable increase

Q: What about the “alteration of current elicited by 50 μM muscimol” value (α1β2γ2 GABAA receptor [2]) of the same sequence?
A: not significantly altered

Q: And the “factor of current increase” value (α1β2γ2 GABAA receptor [2]; 0.3 μM muscimol + 100 nM sMmTX1, n=5)?
A: 2.7±0.18

Q: What about the “factor of current increase” value (α1β2γ2 GABAA receptor [2]; 3 μM muscimol + 10 nM toxin) of the same sequence?
A: 1.28±0.12

Q: And the “factor of current increase” value (α1β2γ2 GABAA receptor [2]; 3 μM muscimol + 100 nM toxin)?
A: 1.33±0.13

Q: What about the “effect on currents and desensitization” value (α1β2γ2 GABAA receptor [2]; 3 μM muscimol + 300 nM sMmTX1, −70 mV) of the same sequence?
A: currents are potentiated and receptor desensitization tends to accelerate

Q: And the “factor of current increase” value (α1β2γ2 GABAA receptor [2]; 3 μM muscimol + 300 nM toxin)?
A: 1.60±0.11

Q: And the “time constant of receptor desensitization” value (α1β2γ2 GABAA receptor [3])?
A: 25 ± 3 s and 25 ± 2 s

Q: And the “effect on macroscopic conductance” value (α1EKβ2γ2 receptor mutant; 300 nM muscimol)?
A: still reduces the macroscopic conductance

Q: What about the “effect on mutant receptor desensitization” value (α1EKβ2γ2 receptor mutant; 5 μM muscimol + 100 nM sMmTX1, n=4) of the same sequence?
A: does not increase mutant receptor desensitization

Q: What about the “initial effect on Ca^2+ oscillations” value (hippocampal neurons [4]) of the same sequence?
A: short but substantial inhibition

Q: And the “frequency of Ca^2+ spikes compared to cells perfused with extracellular saline solution” value (hippocampal neurons [4]; 100 nM sMmTX1 alone, n=9)?
A: 105.8±4.0%

Q: And the LD50 (mice)?
A: 0.013 mg/kg

Q: What about the behavioral signs (mice) of the same sequence?
A: identical mouse behavioral phenotype

Q: What about the “sensitivity of the receptor to toxin” value (α1β2-containing receptor) of the same sequence?
A: sensitive
